From patent US12459922B2 (Gilead Sciences, Inc., priority 2022, dated 2025)

Key:
PARP7 = target: T1, PARP7 (Homo sapiens, UniProt Q7Z3E1); experiment: Probe Displacement Assay for PARP7 (MSD electrochemiluminescent, biotinylated probe RBNO11147); conditions: displacement of biotinylated probe RBNO11147 from PARP7 NAD+-binding site; read-out: MSD ProbeDisp PARP7 IC50
T1 sequence (Q7Z3E1 1-657): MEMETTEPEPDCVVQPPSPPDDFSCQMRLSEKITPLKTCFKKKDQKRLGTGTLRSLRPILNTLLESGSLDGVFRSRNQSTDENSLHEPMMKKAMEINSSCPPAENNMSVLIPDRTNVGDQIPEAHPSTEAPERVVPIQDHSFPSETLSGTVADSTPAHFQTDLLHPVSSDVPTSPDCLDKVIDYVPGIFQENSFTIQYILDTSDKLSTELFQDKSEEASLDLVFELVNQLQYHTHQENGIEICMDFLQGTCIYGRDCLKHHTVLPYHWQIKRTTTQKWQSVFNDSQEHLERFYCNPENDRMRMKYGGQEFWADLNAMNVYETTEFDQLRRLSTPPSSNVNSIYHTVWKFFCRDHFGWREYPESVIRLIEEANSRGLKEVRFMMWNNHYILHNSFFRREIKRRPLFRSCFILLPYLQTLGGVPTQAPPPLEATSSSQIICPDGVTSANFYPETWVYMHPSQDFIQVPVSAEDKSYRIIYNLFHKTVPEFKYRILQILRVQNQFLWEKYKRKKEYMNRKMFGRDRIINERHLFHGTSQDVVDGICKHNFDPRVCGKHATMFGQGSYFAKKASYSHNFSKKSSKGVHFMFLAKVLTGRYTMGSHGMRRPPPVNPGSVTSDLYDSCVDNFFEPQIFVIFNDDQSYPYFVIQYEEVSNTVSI

[1] = system: endogenous cellular STAT1 (phosphorylated at Tyr701) in NCI-H1373 cells; experiment: Phospho-STAT1 (Tyr701) LANCE Ultra TR-FRET Detection Assay; assay type: cell-based; conditions: Homo sapiens, NCI-H1373, 48 h, phospho-STAT1 (Tyr701) induction, read-out: NH1373 pSTAT1 EC50

SMILES | IC50 (PARP7) [nM] | EC50 [1] [nM]
C[C@@H](CCCn1ccc2cc(-c3cn4ccccc4n3)c(F)cc2c1=O)Nc1cn[nH]c(=O)c1C(F)(F)F [Example 305, (S)-7-fluoro-6-(imidazo[1,2-a]pyridin-2-yl)-2-(4-((6-oxo-5-(trifluoromethyl)-1,6-dihydropyridazin-4-yl)amino)pentyl)isoquinolin-1(2H)-one] | 0.387 | 57
C[C@@H](CCCn1ccc2cc(-c3nc4ccccc4o3)c(F)cc2c1=O)Nc1cn[nH]c(=O)c1C(F)(F)F [Example 307, (S)-6-(benzo[d]oxazol-2-yl)-7-fluoro-2-(4-((6-oxo-5-(trifluoromethyl)-1,6-dihydropyridazin-4-yl)amino)pentyl)isoquinolin-1(2H)-one] | 0.352 | 11.2
C[C@@H](CCCn1ccc2cc(-c3nc4ccccc4s3)c(F)cc2c1=O)Nc1cn[nH]c(=O)c1C(F)(F)F [Example 308, (S)-6-(benzo[d]thiazol-2-yl)-7-fluoro-2-(4-((6-oxo-5-(trifluoromethyl)-1,6-dihydropyridazin-4-yl)amino)pentyl)isoquinolin-1(2H)-one] | 0.387 | 35.8
Cc1cc(NC2CC2)nc(-c2cc3ccn(CCC[C@H](C)Nc4cn[nH]c(=O)c4C(F)(F)F)c(=O)c3cc2F)n1 [Example 310, (S)-6-(4-(cyclopropylamino)-6-methylpyrimidin-2-yl)-7-fluoro-2-(4-((6-oxo-5-(trifluoromethyl)-1,6-dihydropyridazin-4-yl)amino)pentyl)isoquinolin-1(2H)-one] | 1.3 | 910
C[C@@H](CCCn1ccc2cc(-c3ncc(C(F)(F)F)c(N4C[C@@H](O)C[C@@H]4C)n3)c(F)cc2c1=O)Nc1cn[nH]c(=O)c1C(F)(F)F [Example 312, 7-fluoro-6-(4-((2S,4S)-4-hydroxy-2-methylpyrrolidin-1-yl)-5-(trifluoromethyl)pyrimidin-2-yl)-2-((S)-4-((6-oxo-5-(trifluoromethyl)-1,6-dihydropyridazin-4-yl)amino)pentyl)isoquinolin-1(2H)-one] | 0.623 | 70
Nc1nc(-c2cc3ccn(CCC[C@H](COC(F)F)Nc4cn[nH]c(=O)c4C(F)(F)F)c(=O)c3cc2F)ncc1C(F)F [Example 376, (R)-6-(4-amino-5-(difluoromethyl)pyrimidin-2-yl)-2-(5-(difluoromethoxy)-4-((6-oxo-5-(trifluoromethyl)-1,6-dihydropyridazin-4-yl)amino)pentyl)-7-fluoroisoquinolin-1(2H)-one] | 0.339 | 3.03
O=c1[nH]ncc(N[C@H](CCCn2ccc3cc(-c4ncc(Cl)cn4)c(F)cc3c2=O)COC(F)F)c1C(F)(F)F [Example 381, (R)-6-(5-chloropyrimidin-2-yl)-2-(5-(difluoromethoxy)-4-((6-oxo-5-(trifluoromethyl)-1,6-dihydropyridazin-4-yl)amino)pentyl)-7-fluoroisoquinolin-1(2H)-one] | 0.28 | 0.885

The next molecules have a lower IC50 (PARP7) than those just listed; values first:

IC50 (PARP7) [nM] | EC50 [1] [nM] | SMILES
0.21 | 2.18 | C[C@@H](CCCn1ccc2cc(-c3nc4ccccn4n3)c(F)cc2c1=O)Nc1cn[nH]c(=O)c1C(F)(F)F [Example 306, (S)-6-([1,2,4]triazolo[1,5-a]pyridin-2-yl)-7-fluoro-2-(4-((6-oxo-5-(trifluoromethyl)-1,6-dihydropyridazin-4-yl)amino)pentyl)isoquinolin-1(2H)-one]
0.258 | 149 | C[C@@H](CCCn1ccc2cc(-c3ncc(C(F)(F)F)s3)c(F)cc2c1=O)Nc1cn[nH]c(=O)c1C(F)(F)F [Example 309, (S)-7-fluoro-2-(4-((6-oxo-5-(trifluoromethyl)-1,6-dihydropyridazin-4-yl)amino)pentyl)-6-(5-(trifluoromethyl)thiazol-2-yl)isoquinolin-1(2H)-one]
0.258 | 14 | C[C@@H](CCCn1ccc2cc(-c3ncc(C(F)(F)F)c(N4C[C@@H](O)[C@@H]4C)n3)c(F)cc2c1=O)Nc1cn[nH]c(=O)c1C(F)(F)F [Example 311, 7-fluoro-6-(4-((2S,3R)-3-hydroxy-2-methylazetidin-1-yl)-5-(trifluoromethyl)pyrimidin-2-yl)-2-((S)-4-((6-oxo-5-(trifluoromethyl)-1,6-dihydropyridazin-4-yl)amino)pentyl)isoquinolin-1(2H)-one]
0.192 | 18.4 | C[C@@H](CCCn1ccc2cc(-c3ncc(C(F)(F)F)c(N4C[C@H](O)C[C@@H]4C)n3)c(F)cc2c1=O)Nc1cn[nH]c(=O)c1C(F)(F)F [Example 313, 7-fluoro-6-(4-((2S,4R)-4-hydroxy-2-methylpyrrolidin-1-yl)-5-(trifluoromethyl)pyrimidin-2-yl)-2-((S)-4-((6-oxo-5-(trifluoromethyl)-1,6-dihydropyridazin-4-yl)amino)pentyl)isoquinolin-1(2H)-one]
0.185 | 6.08 | C[C@@H](CCCn1cnc2cc(-c3ncc(C(F)(F)F)c(N4C[C@@H](O)[C@@H]4C)n3)c(F)cc2c1=O)Nc1cn[nH]c(=O)c1C(F)(F)F [Example 314, 6-fluoro-7-(4-((2S,3R)-3-hydroxy-2-methylazetidin-1-yl)-5-(trifluoromethyl)pyrimidin-2-yl)-3-((S)-4-((6-oxo-5-(trifluoromethyl)-1,6-dihydropyridazin-4-yl)amino)pentyl)quinazolin-4(3H)-one]
0.179 | 1.15 | O=c1[nH]ncc(N[C@H](CCCn2ccc3cc(-c4ncc(C(F)F)cn4)c(F)cc3c2=O)COC(F)F)c1C(F)(F)F [Example 377, (R)-2-(5-(difluoromethoxy)-4-((6-oxo-5-(trifluoromethyl)-1,6-dihydropyridazin-4-yl)amino)pentyl)-6-(5-(difluoromethyl)pyrimidin-2-yl)-7-fluoroisoquinolin-1(2H)-one]
0.255 | 2.45 | Nc1nc(-c2cc3ccn(CCC[C@H](COC(F)F)Nc4cn[nH]c(=O)c4C(F)(F)F)c(=O)c3cc2F)ncc1Cl [Example 378, (R)-6-(4-amino-5-chloropyrimidin-2-yl)-2-(5-(difluoromethoxy)-4-((6-oxo-5-(trifluoromethyl)-1,6-dihydropyridazin-4-yl)amino)pentyl)-7-fluoroisoquinolin-1(2H)-one]
0.14 | 2.43 | Nc1nc(-c2cc3ccn(CCC[C@H](COC(F)F)Nc4cn[nH]c(=O)c4C(F)(F)F)c(=O)c3cc2F)ncc1C(F)(F)F [Example 379, (R)-6-(4-amino-5-(trifluoromethyl)pyrimidin-2-yl)-2-(5-(difluoromethoxy)-4-((6-oxo-5-(trifluoromethyl)-1,6-dihydropyridazin-4-yl)amino)pentyl)-7-fluoroisoquinolin-1(2H)-one]
0.211 | 4.88 | Nc1nc(-c2cc3ccn(CCC[C@H](COC(F)F)Nc4cn[nH]c(=O)c4C(F)(F)F)c(=O)c3cc2F)ccc1C(F)(F)F [Example 380, (R)-6-(6-amino-5-(trifluoromethyl)pyridin-2-yl)-2-(5-(difluoromethoxy)-4-((6-oxo-5-(trifluoromethyl)-1,6-dihydropyridazin-4-yl)amino)pentyl)-7-fluoroisoquinolin-1(2H)-one]
